Source: US7563801B2, “Pharmaceutical formulations: salts of 8-[{1-(3,5-Bis-(trifluoromethyl)phenyl)-ethoxy}-methyl]-8-phenyl-1,7-diaza-spiro[4.5]decan-2-one and treatment methods using the same” (Schering Corporation, priority 2006, dated 2009)

Key:
[1] = Single dose rising study of the encapsulated formulation in healthy human volunteers, pharmacokinetics; assay type: in vivo; settings: for AUC / Cmax / Tmax / half-life: plasma, oral capsule; for AUC: 0 to 72 hours post administration, read-out: AUC (area under the plasma concentration time curve); for Cmax: read-out: Cmax (mean maximum plasma concentration); for Tmax: read-out: Tmax (median time of maximum plasma concentration); for half-life: read-out: Half Life T ½ (converted)
Experimental: Another aspect of the present invention is the provision of a pharmaceutical formulation comprising a hydrochloride monohydrate salt of Formula II in a capsule oral dosage form which has a Pharmacokinetic (PK) profile obtained under single dose rising rate study conditions in accordance with Table VIII (average of eight study subjects).
Blood samples were collected from each volunteer at predose (hour 0) and 0.25, 0.5, 0.75, 1, 1.5, 2, 3, 4, 6, 8, 12, 16, 24, 36, 48, and 72 hours. The serum drug levels of the volunteers receiving active drug are present graphically in FIG. 2.

[2] = Second study: 10, 25 or 50 mg per day for 10 days in healthy volunteers, pharmacokinetics on days 1 and 10; assay type: in vivo, human; settings: for Cmax / AUC / Tmax / half-life: plasma, oral; for Cmax: read-out: Cmax (mean maximum plasma concentration); for AUC: footnote: 0 to 72 hours post administration, read-out: AUC (area under the plasma concentration time curve); for Tmax: read-out: Tmax (median time of maximum plasma concentration); for half-life: read-out: Half Life T ½ (converted)
Experimental: In a second study, three cohorts of 8 healthy volunteers each were administered 10, 25, or 50 mg per day for each of 10 days. Administration in every case followed a 10 hour fast. Blood samples were collected from each volunteer at predose (hour 0) and 0.25, 0.5, 0.75, 1, 1.5, 2, 3, 4, 6, 8, 12, 16, 24, 36, 48, and 72 hours on each of days 1 and 10.

[3] = human, 10 mg per day, human, 10 mg per day, Day 1
[4] = human, 10 mg per day, human, 10 mg per day, Day 10
[5] = human, 25 mg per day, human, 25 mg per day, Day 1
[6] = human, 25 mg per day, human, 25 mg per day, Day 10
[7] = human, 50 mg per day, human, 50 mg per day, Day 1
[8] = human, 50 mg per day, human, 50 mg per day, Day 10

AUC ([1]; single dose 5 mg): 931 ng·h/mL | Cmax ([1]; single dose 5 mg): 27.3 ng/mL | Tmax ([1]; single dose 5 mg): 2 h | AUC ([1]; single dose 10 mg): 1820 ng·h/mL | Cmax ([1]; single dose 10 mg): 52.7 ng/mL | Tmax ([1]; single dose 10 mg): 2.5 h | AUC ([1]; single dose 25 mg): 17200 ng·h/mL | Cmax ([1]; single dose 25 mg): 119 ng/mL | half-life ([1]; single dose 25 mg): 183 h | Tmax ([1]; single dose 25 mg): 2.5 h | AUC ([1]; single dose 50 mg): 33600 ng·h/mL | Cmax ([1]; single dose 50 mg): 276 ng/mL | half-life ([1]; single dose 50 mg): 171 h | Tmax ([1]; single dose 50 mg): 3 h | AUC ([1]; single dose 100 mg): 74400 ng·h/mL | Cmax ([1]; single dose 100 mg): 475 ng/mL | half-life ([1]; single dose 100 mg): 181 h | Tmax ([1]; single dose 100 mg): 2 h | AUC ([1]; single dose 200 mg): 148000 ng·h/mL | Cmax ([1]; single dose 200 mg): 944 ng/mL | half-life ([1]; single dose 200 mg): 169 h | Tmax ([1]; single dose 200 mg): 4 h | Absorption ([1]; single oral doses 5 to 200 mg): rapidly absorbed | Absorption ([2]; human, 10, 25 or 50 mg per day for 10 days): rapidly absorbed | Accumulation relative to the single dose ([2]; human, daily dosing for 10 days): approximately 5 fold | Cmax ([2]; human, 10 mg per day, human, 10 mg per day, Day 1, after 10 hour fast): 48.6 ng/mL | AUC [2, 3]: 673 ng·h/mL | Tmax [2, 3]: 3 h | Cmax ([2]; human, 10 mg per day, human, 10 mg per day, Day 10, after 10 hour fast): 180 ng/mL | AUC [2, 4]: 3590 ng·h/mL | Tmax [2, 4]: 3 h | Cmax ([2]; human, 25 mg per day, human, 25 mg per day, Day 1, after 10 hour fast): 139 ng/mL | AUC [2, 5]: 1950 ng·h/mL | Tmax [2, 5]: 2 h | Cmax ([2]; human, 25 mg per day, human, 25 mg per day, Day 10, after 10 hour fast): 491 ng/mL | AUC [2, 6]: 9720 ng·h/mL | Tmax [2, 6]: 2 h | Cmax ([2]; human, 50 mg per day, human, 50 mg per day, Day 1, after 10 hour fast): 254 ng/mL | AUC [2, 7]: 3400 ng·h/mL | Tmax [2, 7]: 3 h | Cmax ([2]; human, 50 mg per day, human, 50 mg per day, Day 10, after 10 hour fast): 895 ng/mL | AUC [2, 8]: 17700 ng·h/mL | Tmax [2, 8]: 2.5 h | half-life ([2]; human, 10 mg per day, Day 10): 238 h | half-life ([2]; human, 50 mg per day, Day 10): 172 h
Structure (SMILES): C[C@@H](OC[C@@]1(c2ccccc2)CC[C@]2(CCC(=O)N2)CN1)c1cc(C(F)(F)F)cc(C(F)(F)F)c1 [(5S,8S)-8-[{(1R)-1-(3,5-Bis-(trifluoromethyl)phenyl]-ethoxy}-methyl]-8-phenyl-1,7-diazaspiro[4,5]decan-2-one]
